Assay results taken from patent US8802597B2, “Herbicidal pyrimidines” (E I du Pont de Nemours and Company, priority 2003, dated 2014).

Legend:
Format in all cases: in vivo
[1] = tested on: morningglory (Ipomoea coccinea); assay: Test B pre/postemergence
Text: (§1) Seeds selected from barnyardgrass (Echinochloa crus-galli), Surinam grass (Brachiaria decumbens), cocklebur (Xanthium strumarium), corn (Zea mays), crabgrass (Digitaria sanguinalis), giant foxtail (Setaria faberii), lambsquarters (Chenopodium album), morningglory (Ipomoea coccinea), pigweed (Amaranthus retroflexus), velvetleaf (Abutilon theophrasti), and wheat (Triticum aestivum) were planted and treated preemergence with test chemicals formulated in a non-phytotoxic solvent mixture which included a surfactant.
(§2) At the same time, plants selected from these crop and weed species and also blackgrass (Alopecurus myosuroides) and wild oat (Avena fatua) were treated with postemergence applications of test chemicals formulated in the same manner. Plants ranged in height from 2 to 18 cm (1- to 4-leaf stage) for postemergence treatments. Plant species in the flooded paddy test consisted of rice (Oryza sativa), umbrella sedge (Cyperus difformis), duck salad (Heteranthera limosa) and barnyardgrass (Echinochloa crus-galli) grown to the 2-leaf stage for testing. Treated plants and controls were maintained in a greenhouse for 13 to 15 days, after which time all species were compared to controls and visually evaluated. Plant response ratings, summarized in Table B, are based on a scale of 0 to 100 where 0 is no effect and 100 is complete control. A dash (-) response means no test result.

[2] = tested on: lambsquarters (Chenopodium album); assay: Test B pre/postemergence; details: Postemergence
Text: as §1, §2

[3] = tested on: crabgrass (Digitaria sanguinalis); assay: Test B pre/postemergence
Text: as §1, §2

[4] = tested on: giant foxtail (Setaria faberii); assay: Test B pre/postemergence
Text: as §1, §2

[5] = tested on: wheat (Triticum aestivum); assay: Test B pre/postemergence
Text: as §1, §2

corn (Zea mays) = assay: Test B pre/postemergence; details: for Plant response rating, Corn: 500 g ai/ha
Text: as §1, §2

[6] = tested on: pigweed (Amaranthus retroflexus); assay: Test B pre/postemergence; details: for Plant response rating, Pigweed: 500 g ai/ha
Text: as §1, §2

[7] = tested on: Surinam grass (Brachiaria decumbens); assay: Test B pre/postemergence
Text: as §1, §2

[8] = tested on: velvetleaf (Abutilon theophrasti); assay: Test B pre/postemergence
Text: as §1, §2

[9] = tested on: cocklebur (Xanthium strumarium); assay: Test B pre/postemergence
Text: as §1, §2

[10] = tested on: barnyardgrass (Echinochloa crus-galli); assay: Test B pre/postemergence
Text: as §1, §2

[11] = tested on: blackgrass (Alopecurus myosuroides); assay: Test B postemergence
Text: as §1, §2

wild oat (Avena fatua) = assay: Test B postemergence
Text: as §1, §2

[12] = tested on: crabgrass (Digitaria sanguinalis); assay: Test A pre/postemergence
Method in brief: (§3)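 Compared with untreated controls, treated plants were visually rated for injury on a 0 (none) to 100 (complete control) scale about ten days after spraying. Pre- and postemergence applications used one solvent/surfactant formulation; postemergence plants measured 2–10 cm.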

[13] = tested on: morningglory (Ipomoea spp.); assay: Test A pre/postemergence
Method in brief: as §3

[14] = tested on: giant foxtail (Setaria faberi); assay: Test A pre/postemergence
Method in brief: as §3

[15] = tested on: redroot pigweed (Amaranthus retroflexus); assay: Test A pre/postemergence
Method in brief: as §3

[16] = tested on: velvetleaf (Abutilon theophrasti); assay: Test A pre/postemergence
Method in brief: as §3

[17] = tested on: barnyardgrass (Echinochloa crus-galli); assay: Test A pre/postemergence
Method in brief: as §3

[18] = Postemergence, 125 g ai/ha, scale 0 to 100 (0 no effect, 100 complete control)
[19] = Postemergence, 500 g ai/ha, scale 0 to 100
[20] = Preemergence, 125 g ai/ha, scale 0 to 100 (0 no effect, 100 complete control)
[21] = Preemergence, 500 g ai/ha, scale 0 to 100 (0 no effect, 100 complete control)
[22] = 125 g ai/ha, scale 0 to 100 (0 no effect, 100 complete control)
[23] = Preemergence, scale 0 to 100 (0 no effect, 100 complete control)
[24] = Postemergence, 125 g ai/ha, 0 to 100 scale (0 no effect, 100 complete control)
[25] = Postemergence, 500 g ai/ha, 0 to 100 scale (0 no effect, 100 complete control)
[26] = Preemergence, 125 g ai/ha, 0 to 100 scale where 0 is no effect and 100 is complete control, approximately ten days
[27] = Preemergence, 500 g ai/ha, 0 to 100 scale where 0 is no effect and 100 is complete control, approximately ten days

CCOC(=O)c1nc(C2CC2)nc(NOC)c1Br [Compound 52]
Morningglory plant response rating [1, 18]: 90
Plant response rating, Morningglory [1, 19]: 90
Plant response rating, Morningglory [1, 20]: 10
Plant response rating, Morningglory [1, 21]: 100
Lambsquarters plant response rating [2, 22]: 80
Plant response rating, Lambsquarters ([2]; 500 g ai/ha, scale 0 to 100): 90
Crabgrass plant response rating [3, 18]: 0
Plant response rating, Crabgrass [3, 19]: 60
Plant response rating, Crabgrass [3, 20]: 0
Plant response rating, Crabgrass [3, 21]: 0
Foxtail, Giant plant response rating [4, 18]: 40
Plant response rating, Foxtail, Giant [4, 19]: 60
Plant response rating, Foxtail, Giant [4, 20]: 0
Plant response rating, Foxtail, Giant [4, 21]: 0
Wheat plant response rating [5, 18]: 0
Plant response rating, Wheat [5, 19]: 20
Plant response rating, Wheat [5, 20]: 0
Plant response rating, Wheat [5, 21]: 0
Corn plant response rating (corn (Zea mays); [18]): 0
Plant response rating, Corn (corn (Zea mays); Postemergence, scale 0 to 100): 60
Plant response rating, Corn (corn (Zea mays); [23]): 0
Pigweed plant response rating [6, 18]: 60
Plant response rating, Pigweed ([6]; Postemergence, scale 0 to 100): 90
Plant response rating, Pigweed [6, 23]: 50
Surinam Grass plant response rating [7, 18]: 0
Plant response rating, Surinam Grass [7, 19]: 30
Plant response rating, Surinam Grass [7, 20]: 0
Plant response rating, Surinam Grass [7, 21]: 0
Velvetleaf plant response rating [8, 18]: 40
Plant response rating, Velvetleaf [8, 19]: 50
Plant response rating, Velvetleaf [8, 20]: 0
Plant response rating, Velvetleaf [8, 21]: 30
Cocklebur plant response rating [9, 18]: 40
Plant response rating, Cocklebur [9, 19]: 60
Plant response rating, Cocklebur [9, 20]: 10
Plant response rating, Cocklebur [9, 21]: 60
Barnyardgrass plant response rating [10, 18]: 30
Plant response rating, Barnyardgrass [10, 19]: 80
Plant response rating, Barnyardgrass [10, 20]: 0
Plant response rating, Barnyardgrass [10, 21]: 30
Blackgrass plant response rating [11, 22]: 0
Plant response rating, Blackgrass ([11]; 500 g ai/ha, scale 0 to 100): 50
Oat, Wild plant response rating (wild oat (Avena fatua); [22]): 0
Plant response rating, Oat, Wild (wild oat (Avena fatua); 500 g ai/ha, scale 0 to 100): 20

CC1(C)OCC(COC(=O)c2nc(C3CC3)nc(N)c2Cl)O1 (centres unmarked) [Compound 147]
Plant response rating, Crabgrass [12, 24]: 25
Plant response rating, Crabgrass [12, 25]: 75
Plant response rating, Crabgrass [12, 26]: 70
Plant response rating, Crabgrass [12, 27]: 80
Plant response rating, Morningglory [13, 24]: 85
Plant response rating, Morningglory [13, 25]: 100
Plant response rating, Morningglory [13, 26]: 95
Plant response rating, Morningglory [13, 27]: 100
Plant response rating, Foxtail, Giant [14, 24]: 60
Plant response rating, Foxtail, Giant [14, 25]: 90
Plant response rating, Foxtail, Giant [14, 26]: 40
Plant response rating, Foxtail, Giant [14, 27]: 85
Plant response rating, Pigweed [15, 24]: 85
Plant response rating, Pigweed [15, 25]: 95
Plant response rating, Pigweed [15, 26]: 80
Plant response rating, Pigweed [15, 27]: 90
Plant response rating, Velvetleaf [16, 24]: 80
Plant response rating, Velvetleaf [16, 25]: 100
Plant response rating, Velvetleaf [16, 26]: 75
Plant response rating, Velvetleaf [16, 27]: 95
Plant response rating, Barnyardgrass [17, 24]: 80
Plant response rating, Barnyardgrass [17, 25]: 90
Plant response rating, Barnyardgrass [17, 26]: 70
Plant response rating, Barnyardgrass [17, 27]: 85

COC(=O)COC(=O)c1nc(C2CC2)nc(N)c1Cl [Compound 148]
Plant response rating, Crabgrass [12, 24]: 10
Plant response rating, Crabgrass [12, 25]: 85
Plant response rating, Crabgrass [12, 26]: 45
Plant response rating, Crabgrass [12, 27]: 90
Plant response rating, Morningglory [13, 24]: 90
Plant response rating, Morningglory [13, 25]: 100
Plant response rating, Morningglory [13, 26]: 90
Plant response rating, Morningglory [13, 27]: 100
Plant response rating, Foxtail, Giant [14, 24]: 45
Plant response rating, Foxtail, Giant [14, 25]: 80
Plant response rating, Foxtail, Giant [14, 26]: 40
Plant response rating, Foxtail, Giant [14, 27]: 80
Plant response rating, Pigweed [15, 24]: 75
Plant response rating, Pigweed [15, 25]: 95
Plant response rating, Pigweed [15, 26]: 80
Plant response rating, Pigweed [15, 27]: 90
Plant response rating, Velvetleaf [16, 24]: 75
Plant response rating, Velvetleaf [16, 25]: 95
Plant response rating, Velvetleaf [16, 26]: 80
Plant response rating, Velvetleaf [16, 27]: 100
Plant response rating, Barnyardgrass [17, 24]: 68
Plant response rating, Barnyardgrass [17, 25]: 90
Plant response rating, Barnyardgrass [17, 26]: 65
Plant response rating, Barnyardgrass [17, 27]: 85

Nc1nc(C2CC2)nc(C(=O)OCC2COC(=O)O2)c1Cl (centres unmarked) [Compound 149]
Plant response rating, Crabgrass [12, 24]: 25
Plant response rating, Crabgrass [12, 25]: 75
Plant response rating, Crabgrass [12, 26]: 20
Plant response rating, Crabgrass [12, 27]: 75
Plant response rating, Morningglory [13, 24]: 80
Plant response rating, Morningglory [13, 25]: 95
Plant response rating, Morningglory [13, 26]: 85
Plant response rating, Morningglory [13, 27]: 100
Plant response rating, Foxtail, Giant [14, 24]: 60
Plant response rating, Foxtail, Giant [14, 25]: 80
Plant response rating, Foxtail, Giant [14, 26]: 35
Plant response rating, Foxtail, Giant [14, 27]: 90
Plant response rating, Pigweed [15, 24]: 75
Plant response rating, Pigweed [15, 25]: 90
Plant response rating, Pigweed [15, 26]: 70
Plant response rating, Pigweed [15, 27]: 90
Plant response rating, Velvetleaf [16, 24]: 85
Plant response rating, Velvetleaf [16, 25]: 100
Plant response rating, Velvetleaf [16, 26]: 70
Plant response rating, Velvetleaf [16, 27]: 85
Plant response rating, Barnyardgrass [17, 24]: 65
Plant response rating, Barnyardgrass [17, 25]: 90
Plant response rating, Barnyardgrass [17, 26]: 70
Plant response rating, Barnyardgrass [17, 27]: 85

Nc1nc(C2CC2)nc(C(=O)OCC2CCCO2)c1Cl (centres unmarked) [Compound 150]
Plant response rating, Crabgrass [12, 24]: 65
Plant response rating, Crabgrass [12, 25]: 80
Plant response rating, Crabgrass [12, 26]: 50
Plant response rating, Crabgrass [12, 27]: 80
Plant response rating, Morningglory [13, 24]: 80
Plant response rating, Morningglory [13, 25]: 100
Plant response rating, Morningglory [13, 26]: 90
Plant response rating, Morningglory [13, 27]: 100
Plant response rating, Foxtail, Giant [14, 24]: 80
Plant response rating, Foxtail, Giant [14, 25]: 85
Plant response rating, Foxtail, Giant [14, 26]: 50
Plant response rating, Foxtail, Giant [14, 27]: 80
Plant response rating, Pigweed [15, 24]: 90
Plant response rating, Pigweed [15, 25]: 90
Plant response rating, Pigweed [15, 26]: 70
Plant response rating, Pigweed [15, 27]: 95
Plant response rating, Velvetleaf [16, 24]: 90
Plant response rating, Velvetleaf [16, 25]: 100
Plant response rating, Velvetleaf [16, 26]: 75
Plant response rating, Velvetleaf [16, 27]: 95
Plant response rating, Barnyardgrass [17, 24]: 80
Plant response rating, Barnyardgrass [17, 25]: 95
Plant response rating, Barnyardgrass [17, 26]: 65
Plant response rating, Barnyardgrass [17, 27]: 80
